# Molecular target: T1, ΔF508-CFTR (Homo sapiens, UniProt P13569, DEL508-508)
# T1 construct: expressed in transfected cells
# Assay: Membrane potential optical assay, identification of correction compounds (single-addition HTS format)
# Type: cell-based
# Settings: PercentActivity; ΔF508-CFTR in NIH3T3 mouse fibroblasts; 16-24 hrs with compound; 10 μM forskolin and 20 μM genistein; read-out: BinnedMaxEfficacy
# Description: Membrane Potential Optical Methods for Assaying ΔF508-CFTR Modulation Properties of Compounds.
# The assay utilizes fluorescent voltage sensing dyes to measure changes in membrane potential using a fluorescent plate reader (e.g., FLIPR III, Molecular Devices, Inc.) as a readout for increase in functional ΔF508-CFTR in NIH 3T3 cells. The driving force for the response is the creation of a chloride ion gradient in conjunction with channel activation by a single liquid addition step after the cells have previously been treated with compounds and subsequently loaded with a voltage sensing dye.
# To identify small molecules that correct the trafficking defect associated with ΔF508-CFTR; a single-addition HTS assay format was developed. Assay Plates containing cells are incubated for ˜2-4 hours in tissue culture incubator at 37° C., 5% CO2, 90% humidity. Cells are then ready for compound exposure after adhering to the bottom of the assay plates.
# The cells were incubated in serum-free medium for 16-24 hrs in tissue culture incubator at 37° C., 5% CO2, 90% humidity in the presence or absence (negative control) of test compound. The cells were subsequently rinsed 3× with Krebs Ringers solution and loaded with a voltage sensing redistribution dye. To activate ΔF508-CFTR, 10 μM forskolin and the CFTR potentiator, genistein (20 μM), were added along with Cl^−-free medium to each well. The addition of Cl^−-free medium promoted Cl^− efflux in response to ΔF508-CFTR activation and the resulting membrane depolarization was optically monitored using voltage sensor dyes.
# Bath Solution #1: (in mM) NaCl 160, KCl 4.5, CaCl2 2, MgCl2 1, HEPES 10, pH 7.4 with NaOH.
# Chloride-free bath solution: Chloride salts in Bath Solution #1 are substituted with gluconate salts.
# NIH3T3 mouse fibroblasts stably expressing ΔF508-CFTR are used for optical measurements of membrane potential. The cells are maintained at 37° C. in 5% CO2 and 90% humidity in Dulbecco's modified Eagle's medium supplemented with 2 mM glutamine, 10% fetal bovine serum, 1×NEAA, β-ME, 1×pen/strep, and 25 mM HEPES in 175 cm^2 culture flasks. For all optical assays, the cells were seeded at ˜20,000/well in 384-well matrigel-coated plates and cultured for 2 hrs at 37° C. before culturing at 27° C. for 24 hrs. for the potentiator assay. For the correction assays, the cells are cultured at 27° C. or 37° C. with and without compounds for 16-24 hours.
# T1 sequence (P13569 with tags, fused parts or gaps DEL508-508): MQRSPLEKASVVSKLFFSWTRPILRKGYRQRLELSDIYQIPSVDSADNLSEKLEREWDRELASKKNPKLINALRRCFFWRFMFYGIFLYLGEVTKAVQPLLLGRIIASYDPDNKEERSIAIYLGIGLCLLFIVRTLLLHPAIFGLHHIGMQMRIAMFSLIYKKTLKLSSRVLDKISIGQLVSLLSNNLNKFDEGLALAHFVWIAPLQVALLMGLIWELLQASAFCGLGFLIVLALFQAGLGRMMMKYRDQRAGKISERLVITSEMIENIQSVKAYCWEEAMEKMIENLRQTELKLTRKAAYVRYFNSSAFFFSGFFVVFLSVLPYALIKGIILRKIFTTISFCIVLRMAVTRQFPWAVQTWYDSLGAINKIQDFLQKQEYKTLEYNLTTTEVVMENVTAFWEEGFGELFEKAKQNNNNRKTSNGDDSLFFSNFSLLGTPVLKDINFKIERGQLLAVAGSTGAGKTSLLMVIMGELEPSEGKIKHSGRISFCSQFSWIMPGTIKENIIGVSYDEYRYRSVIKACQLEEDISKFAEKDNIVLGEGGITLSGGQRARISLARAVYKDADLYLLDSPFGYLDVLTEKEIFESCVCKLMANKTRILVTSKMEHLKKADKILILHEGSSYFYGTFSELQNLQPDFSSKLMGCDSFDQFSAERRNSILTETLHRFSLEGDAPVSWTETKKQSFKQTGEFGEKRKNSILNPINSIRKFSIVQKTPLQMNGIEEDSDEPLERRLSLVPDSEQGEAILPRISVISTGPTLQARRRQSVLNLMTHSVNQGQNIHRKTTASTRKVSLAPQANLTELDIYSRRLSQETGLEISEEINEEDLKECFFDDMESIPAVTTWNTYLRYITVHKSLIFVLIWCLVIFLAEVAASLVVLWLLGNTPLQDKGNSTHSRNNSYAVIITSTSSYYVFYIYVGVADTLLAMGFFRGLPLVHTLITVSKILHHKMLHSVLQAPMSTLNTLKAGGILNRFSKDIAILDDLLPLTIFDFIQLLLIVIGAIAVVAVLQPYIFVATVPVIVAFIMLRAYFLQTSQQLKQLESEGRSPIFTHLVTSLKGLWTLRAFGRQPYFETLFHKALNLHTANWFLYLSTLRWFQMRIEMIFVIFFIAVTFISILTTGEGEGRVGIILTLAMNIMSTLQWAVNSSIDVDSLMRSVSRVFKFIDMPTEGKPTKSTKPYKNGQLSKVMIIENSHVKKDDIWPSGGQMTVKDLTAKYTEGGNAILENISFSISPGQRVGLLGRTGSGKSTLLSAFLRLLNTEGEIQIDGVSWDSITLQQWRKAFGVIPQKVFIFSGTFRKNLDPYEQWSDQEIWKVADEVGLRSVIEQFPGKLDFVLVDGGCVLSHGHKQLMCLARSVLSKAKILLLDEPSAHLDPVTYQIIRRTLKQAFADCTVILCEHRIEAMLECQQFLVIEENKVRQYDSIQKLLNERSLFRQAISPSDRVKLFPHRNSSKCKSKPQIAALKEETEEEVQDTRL
row,Emax,Structure (SMILES)
1,25 to 100%,COc1ccccc1C(=O)c1ccc(NC(=O)C2(c3ccccc3OC)CC2)nc1 [Compound 1]
2,> 100%,CCc1ccnc(NC(=O)C2(c3ccc4c(c3)OCO4)CC2)c1 [Compound 2]
3,> 100%,COc1ccc(Cc2cccc(NC(=O)C3(c4ccc5c(c4)OCO5)CC3)n2)cc1 [Compound 3]
4,> 100%,COc1ccccc1Cc1ccc(NC(=O)C2(c3ccc(OC(F)(F)F)cc3)CC2)nc1 [Compound 4]
5,> 100%,Cc1ccccc1Cc1cccc(NC(=O)C2(c3ccc4c(c3)OCO4)CC2)n1 [Compound 5]
6,25 to 100%,NC(=O)c1ccc(NC(=O)C2(c3ccc4c(c3)OCO4)CC2)nc1 [Compound 6]
7,> 100%,CCN(CC)C(c1ccc(NC(=O)C2(c3ccc4c(c3)OCO4)CC2)nc1)c1ccccc1OC (stereo not shown) [Compound 7]
8,25 to 100%,COc1ccc(C2(C(=O)Nc3ccc(Cc4ccccc4OC)cn3)CC2)cc1 [Compound 8]
9,> 100%,COc1ccccc1C(c1ccc(NC(=O)C2(c3ccc4c(c3)OCO4)CC2)nc1)N1CCCC1 (stereo not shown) [Compound 9]
10,25 to 100%,COc1ccccc1Cc1ccc(NC(=O)C2(c3ccc(OC)c(OC)c3)CC2)nc1 [Compound 10]
11,25 to 100%,COc1ccc(C2(C(=O)Nc3ccc(C(=O)c4ccccc4OC)cn3)CC2)cc1OC [Compound 12]
12,25 to 100%,COc1ccccc1Cc1ccc(NC(=O)C2(c3ccccc3OC)CC2)nc1 [Compound 13]
13,> 100%,O=C(c1ccccc1)c1ccc(NC(=O)C2(c3ccc4c(c3)OCO4)CC2)nc1 [Compound 14]
14,> 100%,O=C(Nc1ccc(CC2CCCCC2)cn1)C1(c2ccc3c(c2)OCO3)CC1 [Compound 16]
15,25 to 100%,O=C(Nc1ccc(C(F)(F)F)cn1)C1(c2ccc3c(c2)OCO3)CC1 [Compound 17]
16,25 to 100%,COc1ccccc1C(OCCN(C(C)C)C(C)C)c1ccc(NC(=O)C2(c3ccc4c(c3)OCO4)CC2)nc1 (stereo not shown) [Compound 18]
17,25 to 100%,CCc1cccc(NC(=O)C2(c3ccc(OC)cc3)CC2)n1 [Compound 19]
18,> 100%,COc1ccccc1C(c1ccc(NC(=O)C2(c3ccc4c(c3)OCO4)CC2)nc1)N(C)C (stereo not shown) [Compound 20]
19,> 100%,Cc1ccnc(NC(=O)C2(c3ccc4c(c3)OCO4)CC2)c1 [Compound 21]
20,25 to 100%,COCCN1CCN(C(c2ccc(NC(=O)C3(c4ccc5c(c4)OCO5)CC3)nc2)c2ccccc2OC)CC1 (stereo not shown) [Compound 22]
21,> 100%,COc1ccccc1C(c1ccc(NC(=O)C2(c3ccc4c(c3)OCO4)CC2)nc1)N1CC(C)OC(C)C1 (stereo not shown) [Compound 23]
22,> 100%,O=C(Nc1ccc(Cc2c(Cl)cccc2Cl)cn1)C1(c2ccc3c(c2)OCO3)CC1 [Compound 24]
23,25 to 100%,COc1ccc(C2(C(=O)Nc3ccccn3)CC2)cc1 [Compound 25]

row,Emax,Structure (SMILES)
1,> 100%,CCc1cccc(NC(=O)C2(c3ccc4c(c3)OCO4)CC2)n1 [Compound 26]
2,> 100%,COc1ccccc1C(=O)c1ccc(NC(=O)C2(c3ccc4c(c3)OCO4)CC2)nc1 [Compound 27]
3,> 100%,COc1ccc(C2(C(=O)Nc3ccc(C(=O)c4ccccc4OC)cn3)CC2)cc1 [Compound 28]
4,> 100%,CC(C)Cc1ccc(NC(=O)C2(c3ccc4c(c3)OCO4)CC2)nc1 [Compound 29]
5,25 to 100%,COc1ccccc1C(=O)c1ccc(NC(=O)C2(c3ccc(OC(F)(F)F)cc3)CC2)nc1 [Compound 30]
6,25 to 100%,COc1ccccc1Cc1ccc(NC(=O)C2(c3ccc(C)cc3)CC2)nc1 [Compound 31]
7,> 100%,COc1ccccc1C(c1ccc(NC(=O)C2(c3ccc4c(c3)OCO4)CC2)nc1)N1CCCCC1 (stereo not shown) [Compound 32]
8,> 100%,CCCOC(c1ccc(NC(=O)C2(c3ccc4c(c3)OCO4)CC2)nc1)c1ccccc1OC (stereo not shown) [Compound 33]
9,25 to 100%,COc1cccc(C2(C(=O)Nc3ccc(Cc4ccccc4OC)cn3)CC2)c1 [Compound 34]
10,> 100%,COc1ccccc1Cc1ccc(NC(=O)C2(c3ccc4c(c3)OCO4)CC2)nc1 [Compound 35]
11,> 100%,COCC1CCCN1C(c1ccc(NC(=O)C2(c3ccc4c(c3)OCO4)CC2)nc1)c1ccccc1OC (stereo not shown) [Compound 36]
12,> 100%,COc1ccccc1C(=O)c1ccc(NC(=O)C2(c3ccc(SC)cc3)CC2)nc1 [Compound 37]
13,25 to 100%,COc1ccc(C2(C(=O)Nc3ccc(C)cn3)CC2)cc1 [Compound 38]
14,25 to 100%,COc1ccccc1C(c1ccc(NC(=O)C2(c3ccc4c(c3)OCO4)CC2)nc1)N1CCN(CCO)CC1 (stereo not shown) [Compound 39]
15,> 100%,Cc1ccc(NC(=O)C2(c3ccc4c(c3)OC(F)(F)O4)CC2)nc1 [Compound 40]
16,25 to 100%,O=C(Nc1ncccc1OCc1ccccc1)C1(c2ccccc2)CC1 [Compound 41]
17,> 100%,Cc1ccc(NC(=O)C2(c3ccc4c(c3)OCO4)CC2)nc1 [Compound 42]
18,25 to 100%,CCc1ccc(C)nc1NC(=O)C1(c2ccc3c(c2)OCO3)CC1 [Compound 43]
19,> 100%,COc1ccccc1C(O)c1ccc(NC(=O)C2(c3ccc4c(c3)OCO4)CC2)nc1 (stereo not shown) [Compound 44]
20,> 100%,COc1ccccc1C(c1ccc(NC(=O)C2(c3ccc4c(c3)OCO4)CC2)nc1)N1CCCC1C(N)=O (stereo not shown) [Compound 45]
21,> 100%,COc1ccccc1Cc1ccc(NC(=O)C2(c3ccc(Cl)cc3)CC2)nc1 [Compound 46]
22,> 100%,O=C(Nc1ccc(F)cn1)C1(c2ccc3c(c2)OCO3)CC1 [Compound 47]
23,25 to 100%,O=C(Nc1ncccc1OCc1ccccc1)C1(c2ccc3c(c2)OCO3)CC1 [Compound 48]

row,Emax,Structure (SMILES)
1,> 100%,COc1ccccc1C(c1ccc(NC(=O)C2(c3ccc4c(c3)OCO4)CC2)nc1)N1CCOCC1 (stereo not shown) [Compound 49]
2,25 to 100%,Cc1cnc(NC(=O)C2(c3ccc4c(c3)OC(F)(F)O4)CC2)cc1-c1cccc(C(=O)O)c1 [Compound 50]
3,> 100%,COC[C@@H]1CCCN1C(c1ccc(NC(=O)C2(c3ccc4c(c3)OCO4)CC2)nc1)c1ccccc1OC (stereo partly shown) [Compound 51]
4,> 100%,COc1ccccc1Nc1ccc(NC(=O)C2(c3ccc4c(c3)OCO4)CC2)nc1 [Compound 52]
5,> 100%,CNC(c1ccc(NC(=O)C2(c3ccc4c(c3)OCO4)CC2)nc1)c1ccccc1OC (stereo not shown) [Compound 53]
6,25 to 100%,COc1ccc(C2(C(=O)Nc3cccc(C)n3)CC2)cc1 [Compound 54]
7,> 100%,COc1ccccc1C(c1ccc(NC(=O)C2(c3ccc4c(c3)OCO4)CC2)nc1)N1CC[C@@H](O)C1 (stereo partly shown) [Compound 55]
8,> 100%,CC(C)Cc1cccc(NC(=O)C2(c3ccc4c(c3)OCO4)CC2)n1 [Compound 56]
9,> 100%,COc1ccccc1C(OCCO)c1ccc(NC(=O)C2(c3ccc4c(c3)OCO4)CC2)nc1 (stereo not shown) [Compound 57]
10,> 100%,COc1ccccc1C(c1ccc(NC(=O)C2(c3ccc4c(c3)OCO4)CC2)nc1)N1CCC(O)CC1 (stereo not shown) [Compound 58]
11,> 100%,O=C(Nc1ccc(Cc2ccccc2Cl)cn1)C1(c2ccc3c(c2)OCO3)CC1 [Compound 59]
12,> 100%,COc1ccc(Cc2ccc(NC(=O)C3(c4ccc5c(c4)OCO5)CC3)nc2)cc1 [Compound 60]
13,25 to 100%,CCc1cccc(NC(=O)C2(c3ccccc3)CC2)n1 [Compound 61]
14,> 100%,CCN(C)C(c1ccc(NC(=O)C2(c3ccc4c(c3)OCO4)CC2)nc1)c1ccccc1OC (stereo not shown) [Compound 62]
15,> 100%,O=C(Nc1ccc(Cc2ccccc2)cn1)C1(c2ccc3c(c2)OCO3)CC1 [Compound 63]
16,25 to 100%,COc1ccccc1Nc1cccc(NC(=O)C2(c3ccc4c(c3)OCO4)CC2)n1 [Compound 64]
17,25 to 100%,N#Cc1ccc(NC(=O)C2(c3ccc4c(c3)OCO4)CC2)nc1 [Compound 65]
18,> 100%,COc1ccccc1C(OCCCO)c1ccc(NC(=O)C2(c3ccc4c(c3)OCO4)CC2)nc1 (stereo not shown) [Compound 66]
19,> 100%,O=C(Nc1cccc(CC2CCCCC2)n1)C1(c2ccc3c(c2)OCO3)CC1 [Compound 67]
20,> 100%,COc1ccccc1C(=O)c1ccc(NC(=O)C2(c3ccc4c(c3)OC(F)(F)O4)CC2)nc1 [Compound 68]
21,> 100%,O=C(Nc1ccccn1)C1(c2ccc3c(c2)OCO3)CC1 [Compound 69]
22,> 100%,COc1ccccc1C(=O)c1ccc(NC(=O)C2(c3ccc(C)cc3)CC2)nc1 [Compound 70]

row,Structure (SMILES),Emax
1,COc1ccccc1C(OCCN1CCOCC1)c1ccc(NC(=O)C2(c3ccc4c(c3)OCO4)CC2)nc1 (stereo not shown) [Compound 11],> 100%
2,COc1ccccc1C(OCCN1CCCCC1)c1ccc(NC(=O)C2(c3ccc4c(c3)OCO4)CC2)nc1 (stereo not shown) [Compound 71],25 to 100%

# Source: patent US8889875B2, “Pyridyl derivatives as CFTR modulators” (Vertex Pharmaceuticals Incorporated, priority 2008, dated 2014)
